Results reported in PubChem BioAssay (NCI).
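48-hour exposure; five concentrations; linearly interpolated endpoints. At the GI50, growth is halved. The concentration for full growth arrest is given as TGI.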

What was measured:
Test in all cases: DTP human tumour cell line panel, 48 h
T-47D breast = test system: T-47D breast
HL-60(TB) leukemia = test system: HL-60(TB) leukemia
MALME-3M melanoma = test system: MALME-3M melanoma
IGROV1 ovarian = test system: IGROV1 ovarian
HOP-92 NSCLC = test system: HOP-92 NSCLC
A549 NSCLC = test system: A549 NSCLC
UO-31 renal = test system: UO-31 renal
NCI-H23 lung = test system: NCI-H23 lung
U251 CNS = test system: U251 CNS
A498 renal = test system: A498 renal
ACHN renal = test system: ACHN renal
OVCAR-5 ovarian = test system: OVCAR-5 ovarian
MDA-MB-435 = test system: MDA-MB-435
UACC-257 melanoma = test system: UACC-257 melanoma
SW-620 colon = test system: SW-620 colon
SK-MEL-2 melanoma = test system: SK-MEL-2 melanoma
CCRF-CEM leukemia = test system: CCRF-CEM leukemia
KM12 colon = test system: KM12 colon
COLO 205 colon = test system: COLO 205 colon
UACC-62 melanoma = test system: UACC-62 melanoma
DU-145 prostate = test system: DU-145 prostate
HS 578T breast = test system: HS 578T breast
EKVX NSCLC = test system: EKVX NSCLC
SF-295 CNS = test system: SF-295 CNS
SNB-75 CNS = test system: SNB-75 CNS
PC-3 prostate = test system: PC-3 prostate
SN12C renal = test system: SN12C renal
SK-OV-3 ovarian = test system: SK-OV-3 ovarian
K-562 leukemia = test system: K-562 leukemia
MDA-MB-231 breast = test system: MDA-MB-231 breast
SF-539 CNS = test system: SF-539 CNS
OVCAR-4 ovarian = test system: OVCAR-4 ovarian
SK-MEL-28 melanoma = test system: SK-MEL-28 melanoma
NCI-H460 lung = test system: NCI-H460 lung
RXF 393 renal = test system: RXF 393 renal
SF-268 CNS = test system: SF-268 CNS
CAKI-1 renal = test system: CAKI-1 renal
NCI-H522 lung = test system: NCI-H522 lung
HCC-2998 colon = test system: HCC-2998 colon
HT29 colon = test system: HT29 colon
SK-MEL-5 melanoma = test system: SK-MEL-5 melanoma
NCI-H226 lung = test system: NCI-H226 lung
NCI/ADR-RES ovarian = test system: NCI/ADR-RES ovarian
TK-10 renal = test system: TK-10 renal

Compound: C#CC[C@@H]1C[C@]2(C)[C@H]3CC=C4[C@H]5CC(C)(C)CC[C@]5(C(=O)NCCCCN)CC[C@@]4(C)[C@]3(C)CC[C@H]2C(C)(C)[C@H]1OC(C)=O
- GI50 (T-47D breast): 1.72 µM
- TGI (T-47D breast): 3.48 µM
- GI50 (HL-60(TB) leukemia): 1.77 µM
- TGI (HL-60(TB) leukemia): 3.71 µM
- GI50 (MALME-3M melanoma): 1.55 µM
- TGI (MALME-3M melanoma): 3.04 µM
- GI50 (IGROV1 ovarian): 1.62 µM
- TGI (IGROV1 ovarian): 3.02 µM
- GI50 (HOP-92 NSCLC): 1.33 µM
- TGI (HOP-92 NSCLC): 2.81 µM
- GI50 (A549 NSCLC): 1.66 µM
- TGI (A549 NSCLC): 3.27 µM
- GI50 (UO-31 renal): 1.41 µM
- TGI (UO-31 renal): 2.71 µM
- GI50 (NCI-H23 lung): 1.75 µM
- TGI (NCI-H23 lung): 3.47 µM
- GI50 (U251 CNS): 1.69 µM
- TGI (U251 CNS): 3.21 µM
- GI50 (A498 renal): 1.8 µM
- TGI (A498 renal): 3.21 µM
- GI50 (ACHN renal): 1.73 µM
- TGI (ACHN renal): 3.11 µM
- GI50 (OVCAR-5 ovarian): 1.62 µM
- TGI (OVCAR-5 ovarian): 2.99 µM
- GI50 (MDA-MB-435): 1.69 µM
- TGI (MDA-MB-435): 3.1 µM
- GI50 (UACC-257 melanoma): 1.87 µM
- TGI (UACC-257 melanoma): 3.61 µM
- GI50 (SW-620 colon): 1.71 µM
- TGI (SW-620 colon): 3.39 µM
- GI50 (SK-MEL-2 melanoma): 1.78 µM
- TGI (SK-MEL-2 melanoma): 3.45 µM
- GI50 (CCRF-CEM leukemia): 1.93 µM
- TGI (CCRF-CEM leukemia): 4.55 µM
- GI50 (KM12 colon): 1.68 µM
- TGI (KM12 colon): 3.18 µM
- GI50 (COLO 205 colon): 1.72 µM
- TGI (COLO 205 colon): 3.32 µM
- GI50 (UACC-62 melanoma): 1.86 µM
- TGI (UACC-62 melanoma): 3.34 µM
- GI50 (DU-145 prostate): 1.7 µM
- TGI (DU-145 prostate): 3.15 µM
- GI50 (HS 578T breast): 1.73 µM
- TGI (HS 578T breast): 3.71 µM
- GI50 (EKVX NSCLC): 1.69 µM
- TGI (EKVX NSCLC): 3.3 µM
- GI50 (SF-295 CNS): 1.82 µM
- TGI (SF-295 CNS): 3.29 µM
- GI50 (SNB-75 CNS): 1.38 µM
- TGI (SNB-75 CNS): 2.69 µM
- GI50 (PC-3 prostate): 1.55 µM
- TGI (PC-3 prostate): 2.93 µM
- GI50 (SN12C renal): 1.76 µM
- TGI (SN12C renal): 3.28 µM
- GI50 (SK-OV-3 ovarian): 1.72 µM
- TGI (SK-OV-3 ovarian): 3.18 µM
- GI50 (K-562 leukemia): 1.91 µM
- TGI (K-562 leukemia): 6.16 µM
- GI50 (MDA-MB-231 breast): 1.61 µM
- TGI (MDA-MB-231 breast): 3.1 µM
- GI50 (SF-539 CNS): 1.68 µM
- TGI (SF-539 CNS): 3.1 µM
- GI50 (OVCAR-4 ovarian): 1.71 µM
- TGI (OVCAR-4 ovarian): 3.23 µM
- GI50 (SK-MEL-28 melanoma): 1.74 µM
- TGI (SK-MEL-28 melanoma): 3.17 µM
- GI50 (NCI-H460 lung): 1.84 µM
- TGI (NCI-H460 lung): 3.47 µM
- GI50 (RXF 393 renal): 1.52 µM
- TGI (RXF 393 renal): 2.95 µM
- GI50 (SF-268 CNS): 1.73 µM
- TGI (SF-268 CNS): 3.62 µM
- GI50 (CAKI-1 renal): 1.54 µM
- TGI (CAKI-1 renal): 2.9 µM

Compound: COc1cc(Cn2c3c(c4c(C(=O)NCCN(C)C)c(O)ccc42)C(=O)c2ccccc2C3=O)cc(OC)c1
- TGI (NCI-H522 lung): 3.21 µM
- TGI (MALME-3M melanoma): 3.05 µM
- TGI (IGROV1 ovarian): 3.22 µM
- TGI (UO-31 renal): 3.23 µM
- TGI (HCC-2998 colon): 2.35 µM
- TGI (A498 renal): 3.45 µM
- TGI (OVCAR-5 ovarian): 3.2 µM
- TGI (MDA-MB-435): 3.4 µM
- TGI (UACC-257 melanoma): 3.97 µM
- TGI (HT29 colon): 3.45 µM
- TGI (SK-MEL-2 melanoma): 3.36 µM
- TGI (SK-MEL-5 melanoma): 3.27 µM
- TGI (KM12 colon): 3.2 µM
- TGI (NCI-H226 lung): 48.3 µM
- TGI (COLO 205 colon): 3.34 µM
- TGI (NCI/ADR-RES ovarian): 5.21 µM
- TGI (DU-145 prostate): 3.2 µM
- TGI (HS 578T breast): 4.55 µM
- TGI (EKVX NSCLC): 3.32 µM
- TGI (SF-295 CNS): 3.45 µM
- TGI (SK-OV-3 ovarian): 3.88 µM
- TGI (K-562 leukemia): > 100 µM
- TGI (SF-539 CNS): 3.4 µM
- TGI (SK-MEL-28 melanoma): 3.43 µM
- TGI (TK-10 renal): 3.14 µM
- TGI (RXF 393 renal): 5.02 µM
- TGI (CAKI-1 renal): 3.26 µM
